Reference: PubChem BioAssay AID1549 (Sanford-Burnham Center for Chemical Genomics, 2009)
Activity calls are given as the source filed them. The rule behind the calls is not given here. Where a SMILES comes first, the peptide text is derived from it.

Molecular target: Influenza A virus M2 proton channel (A/TW/4845/1999 H1N1)
Assay: M2 proton channel binding, NMR based, influenza A virus H1N1 strain (AID 1549)
Settings: NMR binding screen, M2 protein

SMILES: O=S(=O)(Nc1cccnc1Cl)c1ccccc1
- Kd: > 4 mM (inactive)

SMILES: O=C1C[C@@H](c2ccc(O)cc2)Oc2cc(O)cc(O)c21
- Kd: > 4 mM (inactive)

SMILES: CC(=O)NC(=S)Nc1cccc(C(=O)O)c1C
- Kd: > 4 mM (inactive)

SMILES: COc1ccc(CN2CCNC(=O)C2CC(=O)O)cc1C (stereo not given)
- Kd: > 4 mM (inactive)

SMILES: Cc1oc(-c2ccccc2)cc1CO
- Kd: > 4 mM (inactive)

SMILES: COc1ccc2c(c1OC)C(=O)O[C@@H]2[C@@H]1c2cc3c(cc2CCN1C)OCO3
- Kd: > 4 mM (inactive)

SMILES: CCOC(=O)c1c(C)nc2cc(C)ccn12
- Kd: > 4 mM (inactive)

SMILES: O=C(Oc1ccc2c(c1)CCC2)N1CCOCC1
- Kd: > 4 mM (inactive)

SMILES: OC1CCN(c2nccc(C(F)(F)F)n2)CC1
- Kd: > 4 mM (inactive)

SMILES: COC(=O)CCC(C)C1CCC2C3CCC4C[C@H](O)CC[C@]4(C)C3C[C@H](O)[C@]12C (stereo not given in full)
- Kd: > 4 mM (inactive)

SMILES: O=C(O)c1ccc(-c2cnco2)cc1
- Kd: > 4 mM (inactive)

SMILES: COc1cccc(NC(=O)c2ncn[nH]2)c1
- Kd: > 4 mM (inactive)

SMILES: Cc1noc(C)c1C(=O)NCc1cccs1
- Kd: > 4 mM (inactive)

SMILES: COc1cccc(=O)c2c(C)n(C)c(C)c12
- Kd: > 4 mM (inactive)

SMILES: OC1CCCN(Cc2ccccc2)C1 (stereo not given)
- Kd: > 4 mM (inactive)

SMILES: CN=C(C)c1c(O)n(C)c(=O)n(C)c1=O
- Kd: > 4 mM (inactive)

SMILES: CN1CCC[C@H]1c1cccnc1
- Kd: > 4 mM (inactive)

SMILES: COc1ccc(NC2=NCC(C)S2)cc1 (stereo not given)
- Kd: > 4 mM (inactive)

SMILES: NC1=NC(=O)C(CC(=O)Nc2ccccc2F)S1 (stereo not given)
- Kd: > 4 mM (inactive)

SMILES: CCn1cnc2cc([N+](=O)[O-])ccc2c1=O
- Kd: > 4 mM (inactive)

SMILES: NC(=O)NC1NC(=O)NC1=O (stereo not given)
- Kd: > 4 mM (inactive)

SMILES: Cc1cc(=O)n(CC(C)C)c(O)c1C#N
- Kd: > 4 mM (inactive)

SMILES: NC(N)=NCCCCN=C(N)N
- Kd: > 4 mM (inactive)

SMILES: COc1cc(C2NC(=S)NC(C)=C2C(C)=O)ccc1O (stereo not given)
- Kd: > 4 mM (inactive)

SMILES: CNC(=O)c1cc(C)c(-c2ccccc2)s1
- Kd: > 4 mM (inactive)

SMILES: O=C(Nc1ccc(N2CCCC2=O)cc1)c1cccc(F)c1
- Kd: > 4 mM (inactive)

SMILES: O=C(Nc1nnc(-c2cccnc2)o1)c1ccccc1F
- Kd: > 4 mM (inactive)

SMILES: O=C1C2CC=CCC2C(=O)N1c1cccc(O)c1 (stereo not given)
- Kd: > 4 mM (inactive)

SMILES: Cc1cc(C)n(S(=O)(=O)c2ccc(C)c(C)c2C)n1
- Kd: > 4 mM (inactive)

SMILES: O=C1c2cccnc2C(=O)N1Cc1ccc2c(c1)OCO2
- Kd: > 4 mM (inactive)

SMILES: COc1ccc(C)cc1S(=O)(=O)N1CCCCC1
- Kd: > 4 mM (inactive)

SMILES: O=c1[nH]cc(COCc2ccccc2)c(=O)[nH]1
- Kd: > 4 mM (inactive)

SMILES: OCn1nnn(-c2ccccc2)c1=S
- Kd: > 4 mM (inactive)

SMILES: CCC(=O)NC(=S)Nc1ccc(O)cc1
- Kd: > 4 mM (inactive)

SMILES: COCCn1c(C)cc(O)cc1=O
- Kd: > 4 mM (inactive)

SMILES: CC(=O)Nc1ccc(S(N)(=O)=O)cc1
- Kd: > 4 mM (inactive)

SMILES: COc1c(C(C)C)oc2cc3oc(=O)ccc3cc12
- Kd: > 4 mM (inactive)

SMILES: Cc1[nH]c2ccccc2c1CN(C)C
- Kd: > 4 mM (inactive)

SMILES: CCc1ccc2oc(-c3cc(N)cc(C)c3O)nc2c1
- Kd: > 4 mM (inactive)

SMILES: Nc1ncnc(NC2CCS(=O)(=O)C2)c1[N+](=O)[O-] (stereo not given)
- Kd: > 4 mM (inactive)

SMILES: Cc1cc(C)n2nc(C(=O)NCc3ccco3)nc2n1
- Kd: > 4 mM (inactive)

SMILES: COc1ccc2c(c1OC)C(=O)OC2[C@H]1c2c(cc3c(c2OC)OCO3)CCN1C (stereo not given in full)
- Kd: > 4 mM (inactive)

SMILES: Cc1nnc(SCC(=O)N2CCc3ccccc32)s1
- Kd: > 4 mM (inactive)

SMILES: Nc1cccc(S(N)(=O)=O)c1
- Kd: > 4 mM (inactive)

SMILES: Fc1cccc(F)c1CN1CCN(c2ncccn2)CC1
- Kd: > 4 mM (inactive)

SMILES: COc1ccc2c(CC(=O)O)coc2c1
- Kd: > 4 mM (inactive)

SMILES: O=c1ccn(Cc2ccccc2)c(=O)n1Cc1ccccc1
- Kd: > 4 mM (inactive)

SMILES: CSCCNC(C)=O
- Kd: > 4 mM (inactive)

SMILES: NC(=O)Cc1nc(-c2ccc(F)cc2)cs1
- Kd: > 4 mM (inactive)

SMILES: O=C1N=c2ccccc2=C1c1sc(=S)[nH]c1O
- Kd: > 4 mM (inactive)

SMILES: Cc1ccc(C(=O)Nn2cnnc2)s1
- Kd: > 4 mM (inactive)

SMILES: CS(=O)(=O)N1CCN(c2ncccn2)CC1
- Kd: > 4 mM (inactive)

SMILES: COc1ccccc1-c1nc(-c2ccc(C)nc2OC)no1
- Kd: > 4 mM (inactive)

SMILES: CC1CN=C(Nc2ccccc2)S1 (stereo not given)
- Kd: > 4 mM (inactive)

SMILES: C[C@@H]1[C@H]2[C@H](O[C@@H]3O[C@H](CO)[C@@H](O)[C@H](O)[C@H]3O)OC=C(C(=O)O)[C@H]2C[C@@H]1O
- Kd: > 4 mM (inactive)

SMILES: COC(=O)C[C@@H]1C2(C)C(=O)[C@@H](CC3C2CC[C@]2(C)C3CC(=O)O[C@H]2c2ccoc2)[C@H](OC(C)=O)C1(C)C (stereo not given in full)
- Kd: > 4 mM (inactive)

SMILES: O=C1CSC(=Nc2cc(Cl)ccc2Cl)N1
- Kd: > 4 mM (inactive)

SMILES: O=C(Nc1ccc(F)cc1F)c1ccco1
- Kd: > 4 mM (inactive)

SMILES: CC(C)(C)CC(=O)NC1=NCCS1
- Kd: > 4 mM (inactive)

SMILES: CC(C)c1ccc(NC(=O)C(N)=O)cc1
- Kd: > 4 mM (inactive)

SMILES: COC(=O)[C@@H]1OC(=O)C2OC23[C@@]1(C)CCC1[C@]2(C)C(C[C@H](O)[C@]13C)C(C)(C)[C@H](OC(C)=O)C[C@@H]2OC(C)=O (stereo not given in full)
- Kd: > 4 mM (inactive)

SMILES: COC(=O)c1cncn1C
- Kd: > 4 mM (inactive)

SMILES: NC(=O)c1ccccc1NC(=O)C1CC1
- Kd: > 4 mM (inactive)

SMILES: O=C(O[C@@H]1Cc2c(O)cc(O)cc2O[C@@H]1c1cc(O)c(=O)c2c(O)c(O)cc([C@H]3Oc4cc(O)cc(O)c4C[C@H]3OC(=O)c3cc(O)c(O)c(O)c3)c2c1)c1cc(O)c(O)c(O)c1
- Kd: > 4 mM (inactive)

SMILES: CC12CN(CC#N)CC(C)(CN(CC#N)C1)C2=O
- Kd: > 4 mM (inactive)

SMILES: Cc1noc(C)c1C(=O)Nc1ccccc1-c1ccccc1
- Kd: > 4 mM (inactive)

SMILES: Cn1ncc(C(=O)NC2CCCCC2)c1Cl
- Kd: > 4 mM (inactive)

SMILES: NC(=O)CSc1ccccn1
- Kd: > 4 mM (inactive)

SMILES: Cc1oc(-c2ccccc2)cc1C(=O)O
- Kd: > 4 mM (inactive)

SMILES: CSc1nnc2[nH]c(=O)cc(N)n12
- Kd: > 4 mM (inactive)

SMILES: COCC(=O)Nc1nc2ccc(C)cc2s1
- Kd: > 4 mM (inactive)

SMILES: CCc1c(C(=O)N2CCOCC2)csc1C
- Kd: > 4 mM (inactive)

SMILES: Cc1c(/C=N\n2cnnc2)c2ccccc2n1C
- Kd: > 4 mM (inactive)

SMILES: O=c1nc(N2CCOCC2)nc2n1CCO2
- Kd: > 4 mM (inactive)

SMILES: NC(=O)Cn1cnc(-c2ccc(F)cc2)c1
- Kd: > 4 mM (inactive)

SMILES: C=C(C)CSc1nc2nc(C)cc(C)n2n1
- Kd: > 4 mM (inactive)

SMILES: NCc1ccc2c(c1)OCO2
- Kd: > 4 mM (inactive)

SMILES: Nc1ccc2[nH]ccc2c1
- Kd: > 4 mM (inactive)

SMILES: Cc1cc(C)n2nc(SCC(=O)c3ccccc3)nc2n1
- Kd: > 4 mM (inactive)

SMILES: C[C@@H]1CC[C@@]2(NC1)O[C@H]1C[C@H]3C4CC=C5C[C@@H](O)CC[C@]5(C)C4CC[C@]3(C)C1[C@@H]2C (stereo not given in full)
- Kd: > 4 mM (inactive)

SMILES: Nc1nc(-c2ccncc2)cs1
- Kd: > 4 mM (inactive)

SMILES: O=C(Nc1cccnc1)c1cnn2cccnc12
- Kd: > 4 mM (inactive)

SMILES: COc1cc(O)c2c(=O)cc(-c3ccc(OC)c(-c4c(O)cc(O)c5c(=O)cc(-c6ccc(O)cc6)oc45)c3)oc2c1
- Kd: > 4 mM (inactive)

SMILES: CC(=O)N[C@@H](CC(=O)O)C(=O)N[C@@H](CCC(=O)O)C(=O)O (Ac-Asp-Glu-OH)
- Kd: > 4 mM (inactive)

SMILES: NC(=O)c1ccsc1N
- Kd: > 4 mM (inactive)

SMILES: CN1CCN(CC(=O)NC2CCCCC2)CC1
- Kd: > 4 mM (inactive)

SMILES: CC(C)(C)c1cc(NC(=O)c2cccnc2)no1
- Kd: > 4 mM (inactive)

SMILES: C/C=C(/C)C(=O)O[C@@H]1[C@H](OC(C)=O)[C@@]2(CO)C(CC1(C)C)C1=CCC3[C@@]4(C)CC[C@H](O[C@@H]5O[C@H](C(=O)O)[C@@H](O[C@@H]6O[C@H](CO)[C@@H](O)[C@H](O)[C@H]6O)[C@H](O)[C@H]5O[C@@H]5O[C@H](CO)[C@@H](O)[C@H](O)[C@H]5O)[C@](C)(CO)C4CC[C@@]3(C)[C@]1(C)C[C@H]2O (stereo not given in full)
- Kd: > 4 mM (inactive)

SMILES: O=S(=O)(c1ccc(F)c(Cl)c1)N1CCCC1
- Kd: > 4 mM (inactive)

SMILES: Nc1c(S(=O)(=O)c2ccccc2)csc1C(=O)O
- Kd: > 4 mM (inactive)

SMILES: C[C@H](CCC(=O)O)[C@H]1CCC2C3C(CC[C@@]21C)[C@@]1(C)CC[C@@H](O)C[C@H]1C[C@H]3O (stereo not given in full)
- Kd: > 4 mM (inactive)

SMILES: OCc1ccc(-n2cncn2)cc1
- Kd: > 4 mM (inactive)

SMILES: c1ccc(NCc2nc(-c3ccccc3)no2)cc1
- Kd: > 4 mM (inactive)

SMILES: CCN1CCC(NC2CCC(O)CC2)CC1 (stereo not given)
- Kd: > 4 mM (inactive)

SMILES: O=C(Nc1ccon1)c1ccc(Cl)s1
- Kd: > 4 mM (inactive)

SMILES: Cc1nn(-c2ccccc2C(=O)O)c(=O)c2ccccc12
- Kd: > 4 mM (inactive)

SMILES: CC(=O)Oc1ccc(O)cc1
- Kd: > 4 mM (inactive)

SMILES: CCN(CC)c1nc2n(c(=O)n1)CCO2
- Kd: > 4 mM (inactive)

SMILES: O=C(c1ccccc1)N1CCOCC1
- Kd: > 4 mM (inactive)

SMILES: COC(=O)C1=CCCN(C)C1
- Kd: > 4 mM (inactive)

SMILES: O=C(Nc1cccnc1)Nc1ccc2c(c1)OCO2
- Kd: > 4 mM (inactive)

SMILES: Cn1c(O)c(/C=C2\C=CC=N2)c(=O)[nH]c1=S
- Kd: > 4 mM (inactive)

SMILES: CC(=O)c1sc(NC(=O)C=C(C)C)nc1C
- Kd: > 4 mM (inactive)

SMILES: COC(=O)/C(=C1\OC(=O)C(c2ccccc2)C1=O)c1ccccc1 (stereo not given)
- Kd: > 4 mM (inactive)

SMILES: CC(C)c1c(O)ccc2c1CCC1C(C)(C)CCC[C@]21C (stereo not given in full)
- Kd: > 4 mM (inactive)

SMILES: COc1cccc(/C=C2/SC(N)=NC2=O)c1
- Kd: > 4 mM (inactive)

SMILES: COC(=O)c1cccs1
- Kd: > 4 mM (inactive)

SMILES: COC(=O)c1ccc(/C=C2/NC(=S)NC2=O)cc1
- Kd: > 4 mM (inactive)

SMILES: NC(=S)NC1CCS(=O)(=O)C1 (stereo not given)
- Kd: > 4 mM (inactive)

SMILES: Nc1nc2c3ccccc3nc(Cc3ccccc3)n2n1
- Kd: > 4 mM (inactive)

SMILES: Cc1ccc(NC(=O)N2CCC(C(N)=O)CC2)cc1
- Kd: > 4 mM (inactive)

SMILES: O=C(O)c1ccc(Oc2ccccc2)nc1
- Kd: > 4 mM (inactive)

SMILES: Nc1ccc(OCc2ccccc2)cc1
- Kd: > 4 mM (inactive)

SMILES: Cc1nn2c(=O)c(NC(=O)c3ccccc3)cnc2s1
- Kd: > 4 mM (inactive)

SMILES: NCc1csc2ccccc12
- Kd: > 4 mM (inactive)
